36 compounds from patent publication US9073940B2, “Tricyclic pyrazol amine derivatives” (MERCK SERONO SA, priority 2009, dated 2015) can be followed below.

In one assay the test system is 4 PI3K isoforms (Human recombinant GST-PI3K). In words: PI3K scintillation proximity assay, best IC50 obtained with the four isoforms (alpha, beta, delta, gamma). Format: biochemical. The settings on record: best IC50 obtained with the four isoforms of PI3K; read-out: Best potency measured on the 4 PI3K isoforms. A general note: In a scintillation proximity assay essentially only radioactivity close to the scintillant gives light.
In the case of `O=C(c1nn(C2CCN(CCN3CCOCC3)CC2)c2c1CS(=O)(=O)c1ccccc1-2)N1CCOCC1` [Example 290, 3-(Morpholin-4-ylcarbonyl)-1-[1-(2-morpholin-4-ylethyl)piperidin-4-yl]-1,4-dihydrothiochromeno[4,3-c]pyrazole 5,5-dioxide], the IC50 came out at 369 nM.
Regarding `O=C(c1nn(-c2cccc(Cn3ccnc3)c2)c2c1CS(=O)(=O)c1ccccc1-2)N1CCOCC1` [Example 291, 1-[3-(1H-imidazol-1-ylmethyl)phenyl]-3-(morpholin-4-ylcarbonyl)-1,4-dihydrothiochromeno[4,3-c]pyrazole 5,5-dioxide], the IC50 stood at 673 nM.
Same read-out and setting: in the case of `O=C(c1nn(-c2cccc(Cn3cccn3)c2)c2c1CS(=O)(=O)c1ccccc1-2)N1CCOCC1` [Example 292, 3-(Morpholin-4-ylcarbonyl)-1-[3-(1H-pyrazol-1-ylmethyl)phenyl]-1,4-dihydrothiochromeno[4,3-c]pyrazole 5,5-dioxide] it was 488 nM.
Same read-out and setting: under `O=C(c1nn(C2CCCN(C3CCOCC3)C2)c2c1CS(=O)(=O)c1ccccc1-2)N1CCOCC1` (stereo not drawn) [Example 293, 3-(Morpholin-4-ylcarbonyl)-1-[1-(tetrahydro-2H-pyran-4-yl)piperidin-3-yl]-1,4-dihydrothiochromeno[4,3-c]pyrazole 5,5-dioxide] stands 254 nM; under `Cc1nc(CN2CCCC(n3nc(C(=O)N4CCOCC4)c4c3-c3ccccc3S(=O)(=O)C4)C2)no1` (stereo not drawn) [Example 295, 1-{1-[(5-Methyl-1,2,4-oxadiazol-3-yl)methyl]piperidin-3-yl}-3-(morpholin-4-ylcarbonyl)-1,4-dihydrothiochromeno[4,3-c]pyrazole 5,5-dioxide], 134 nM; under `O=C(c1nn(C2CCCN(CCCn3cccc3)C2)c2c1CS(=O)(=O)c1ccccc1-2)N1CCOCC1` (stereo not drawn) [Example 296, 3-(Morpholin-4-ylcarbonyl)-1-{1-[3-(1H-pyrrol-1-yl)propyl]piperidin-3-yl}-1,4-dihydrothiochromeno[4,3-c]pyrazole 5,5-dioxide], 90 nM.
Still for that read-out and setting: in the case of `O=C(c1nn(C2CCCN(CCn3ccnc3)C2)c2c1CS(=O)(=O)c1ccccc1-2)N1CCOCC1` (stereo not drawn) [Example 297, 1-{1-[2-(1H-Imidazol-1-yl)ethyl]piperidin-3-yl}-3-(morpholin-4-ylcarbonyl)-1,4-dihydrothiochromeno[4,3-c]pyrazole 5,5-dioxide] it was 52 nM.
For `O=C(c1nn(C2CCN(C3CCOCC3)C2)c2c1CS(=O)(=O)c1c(F)cccc1-2)N1CCOCC1` (stereo not drawn) [Example 298, 6-Fluoro-3-(morpholin-4-ylcarbonyl)-1-[1-(tetrahydro-2H-pyran-4-yl)pyrrolidin-3-yl]-1,4-dihydrothiochromeno[4,3-c]pyrazole 5,5-dioxide], the IC50 was determined as 29 nM.
On the same count and under the same terms, in the case of `CC(=O)OCCN1CCC(n2nc(C(=O)N3CCOCC3)c3c2-c2ccccc2S(=O)(=O)C3)C1` (stereo not drawn) [Example 299, 2{3-[3-(Morpholin-4-ylcarbonyl)-5,5-dioxidothiochromeno[4,3-c]pyrazol-1(4H)-yl]pyrrolidin-1-yl)ethyl acetate] it was 871 nM; in that of `O=C(c1nn(C2CCN(C3CCOCC3)C2)c2c1CS(=O)(=O)c1ccccc1-2)N1CCOCC1` (stereo not drawn) [Example 300, 3-(Morpholin-4-ylcarbonyl)-1-[1-(tetrahydro-2H-pyran-4-yl)pyrrolidin-3-yl]-1,4-dihydrothiochromeno[4,3-c]pyrazole 5,5-dioxide], 77 nM.
Same read-out and setting: under `O=C(c1nn(C2CCCN(CCC3CCOCC3)C2)c2c1CS(=O)(=O)c1c(Cl)cccc1-2)N1CCOCC1` (stereo not drawn) [Example 301, 6-Chloro-3-(morpholin-4-ylcarbonyl)-1-{1-[2-(tetrahydro-2H-pyran-4-yl)ethyl]piperidin-3-yl}-1,4-dihydrothiochromeno[4,3-c]pyrazole 5.5-dioxide] stands 38 nM; under `O=C(c1nn(C2CCN(CCC3CCOCC3)C2)c2c1CS(=O)(=O)c1c(F)cccc1-2)N1CCOCC1` (stereo not drawn) [Example 302, 6-Fluoro-3-(morpholin-4-ylcarbonyl)-1-{1-[2-(tetrahydro-2H-pyran-4-yl)ethyl]pyrrolidin-3-yl}-1,4-dihydrothiochromeno[4,3-c]pyrazole 5,5-dioxide], 21 nM; under `O=C(c1nn(C2CCN(CC3CCOC3)C2)c2c1CS(=O)(=O)c1ccccc1-2)N1CCOCC1` (stereo not drawn) [Example 303, 3-(Morpholin-4-ylcarbonyl)-1-[1-(tetrahydrofuran-3-ylmethyl)pyrrolidin-3-yl]-1,4-dihydrothiochromeno[4,3-c]pyrazole 5,5-dioxide], 353 nM.
Consider `O=C(c1nn(C2CCN(CC3CCOC3)C2)c2c1CS(=O)(=O)c1c(F)cccc1-2)N1CCOCC1` (stereo not drawn) [Example 304, 6-Fluoro-3-(morpholin-4-ylcarbonyl)-1-[1-(tetrahydrofuran-3-ylmethyl)pyrrolidin-3-yl]-1,4-dihydrothiochromeno[4,3-c]pyrazole 5,5-dioxide], for which the IC50 is 57 nM.
The same measure, in the same setting: in the case of `O=C(c1nn(C2CCCN(CC3CCOCC3)C2)c2c1CS(=O)(=O)c1ccccc1-2)N1CCOCC1` (stereo not drawn) [Example 305, 3-(morpholin-4-ylcarbonyl)-1-[1-(tetrahydro-2H-pyran-4-ylmethyl)piperidin-3-yl]-1,4-dihydrothiochromeno[4,3-c]pyrazole 5,5-dioxide] it was 11 nM; in that of `O=C(c1nn(C2CCN(CCN3CC[C@@H](F)C3)C2)c2c1CS(=O)(=O)c1ccccc1-2)N1CCOCC1` (stereo partly drawn) [Example 308, 1-(1-{2-[(3R)-3-Fluoropyrrolidin-1-yl]ethyl}pyrrolidin-3-yl)-3-(morpholin-4-ylcarbonyl)-1,4-dihydrothiochromeno[4,3-c]pyrazole 5,5-dioxide], 120 nM; in that of `O=C(c1nn(C2CCCN(CCN3CCOCC3)C2)c2c1CS(=O)(=O)c1c(Cl)cccc1-2)N1CCOCC1` (stereo not drawn) [Example 309, 6-Chloro-3-(morpholin-4-ylcarbonyl)-1-[1-(2-morpholin-4-ylethyl)piperidin-3-yl]-1,4-dihydrothiochromeno[4,3-c]pyrazole 5,5-dioxide], 120 nM.
With `O=C(c1nn(C2CCN(CCN3CC[C@H](F)C3)C2)c2c1CS(=O)(=O)c1ccccc1-2)N1CCOCC1` (stereo partly drawn) [Example 310, 1-(1-{2-[(3S)-3-Fluoropyrrolidin-1-yl]ethyl}pyrrolidin-3-yl)-3-(morpholin-4-ylcarbonyl)-1,4-dihydrothiochromeno[4,3-c]pyrazole 5,5-dioxide], the IC50 was 192 nM.
On to `O=C(c1nn(C2CCN(CCN3CC(F)(F)C3)C2)c2c1CS(=O)(=O)c1ccccc1-2)N1CCOCC1` (stereo not drawn) [Example 311, 1-{1-[2-(3,3-Difluoroazetidin-1-yl)ethyl]pyrrolidin-3-yl}-3-(morpholin-4-ylcarbonyl)-1,4-dihydrothiochromeno[4,3-c]pyrazole 5,5-dioxide], for which the IC50 was found to be 156 nM.
With `COc1ccccc1-n1nc(C(=O)N2CCOCC2)c2c1-c1ccccc1S(=O)(=O)C2` [Example 313, 1-(2-Methoxyphenyl)-3-(morpholin-4-ylcarbonyl)-1,4-dihydrothiochromeno[4,3-c]pyrazole 5,5-dioxide], the IC50 amounted to 14800 nM.
On the same count and under the same terms, under `O=C(c1nn(C2CCOCC2)c2c1C(F)S(=O)(=O)c1ccccc1-2)N1CCOCC1` (stereo not drawn) [Example 316, 4-Fluoro-3-(morpholin-4-ylcarbonyl)-1-(tetrahydro-2H-pyran-4-yl)-1,4-dihydrothiochromeno[4,3-c]pyrazole 5,5-dioxide] stands 9800 nM.
Consider `COc1ccc(C(=O)Cn2nc(C(=O)N3CCOCC3)c3c2-c2ccccc2S(=O)(=O)C3)cc1` [Example 317], for which the IC50 was determined as 14500 nM.
The same measure, in the same setting: in the case of `CC1CC(C)CC(n2nc(C(=O)N3CCOCC3)c3c2-c2ccccc2S(=O)(=O)C3)C1` (stereo not drawn) [Example 321] it was 7960 nM; in that of `CC(=O)Nc1cccc2c1S(=O)(=O)Cc1c(C(=O)N3CCOCC3)nn(-c3ccccc3)c1-2` [Example 322], 9880 nM; in that of `O=C(c1nn(-c2ccccc2)c2c1CS(=O)(=O)c1c(-c3ccccc3)cccc1-2)N1CCOCC1` [Example 323], 17900 nM.
As for `O=C(c1nn(-c2cccc(-c3ncon3)c2)c2c1CS(=O)(=O)c1ccccc1-2)N1CCOCC1` [Example 324], the IC50 was 6690 nM.
As for `CCCCNc1ccc2c(c1)S(=O)(=O)Cc1c(C(=O)N3CCOCC3)nn(-c3ccccc3)c1-2` [Example 326], the IC50 amounted to 9790 nM.
Still for that read-out and setting: under `COCCNc1ccc2c(c1)S(=O)(=O)Cc1c(C(=O)N3CCOCC3)nn(-c3ccccc3)c1-2` [Example 327] stands 6610 nM; under `O=C(c1nn(-c2ccc(-c3ccccc3)cc2)c2c1CS(=O)(=O)c1ccccc1-2)N1CCOCC1` [Example 328], 10300 nM.

The same assay, now with this note: inhibition at 20 μM.
In the case of `CC(C)c1ccccc1-n1nc(C(=O)N2CCOCC2)c2c1-c1ccccc1S(=O)(=O)C2` [Example 312, 1-(2-Isopropylphenyl)-3-(morpholin-4-ylcarbonyl)-1,4-dihydrothiochromeno[4,3-c]pyrazole 5,5-dioxide], the “Best potency measured on the 4 PI3K isoforms, % inh @20 μM” value (shortened to “Best potency measured … % inh @20 μM”) is reported as 47% inh @20 μM.
Take `CS(=O)(=O)c1ccccc1-n1nc(C(=O)N2CCOCC2)c2c1-c1ccccc1S(=O)(=O)C2` [Example 314]: the “Best potency measured … % inh @20 μM” value is 45% inh @20 μM.
In the case of `O=C(Nc1cccc2c1S(=O)(=O)Cc1c(C(=O)N3CCOCC3)nn(-c3ccccc3)c1-2)c1ccccc1` [Example 318], the “Best potency measured … % inh @20 μM” value was 10% inh @20 μM.
With `O=C(c1nn(-c2ccccc2)c2c1CS(=O)(=O)c1c(CN3CCCCC3)cccc1-2)N1CCOCC1` [Example 319], the “Best potency measured … % inh @20 μM” value stood at 33% inh @20 μM.
Same read-out and setting: in the case of `CN(C)Cc1cccc2c1S(=O)(=O)Cc1c(C(=O)N3CCOCC3)nn(-c3ccccc3)c1-2` [Example 320] it was 32% inh @20 μM; in that of `O=C(c1nn(-c2cccc(-c3nn[nH]n3)c2)c2c1CS(=O)(=O)c1ccccc1-2)N1CCOCC1` [Example 325], 19% inh @20 μM; in that of `O=C(c1nn(-c2ccccc2)c2c1CS(=O)(=O)c1cc(CN3CCOCC3)ccc1-2)N1CCOCC1` [Example 329], 23% inh @20 μM.
